The results in this text go back to ChEMBL document CHEMBL1221272, “Discovery and structure-activity relationships of a series of pyroglutamic acid amide antagonists of the P2X7 receptor” (Bioorg Med Chem Lett, 2010).

The target in data set [1] is T1, P2X purinoceptor 7 (Homo sapiens, UniProt Q99572).
T1 sequence (Q99572 whole entry): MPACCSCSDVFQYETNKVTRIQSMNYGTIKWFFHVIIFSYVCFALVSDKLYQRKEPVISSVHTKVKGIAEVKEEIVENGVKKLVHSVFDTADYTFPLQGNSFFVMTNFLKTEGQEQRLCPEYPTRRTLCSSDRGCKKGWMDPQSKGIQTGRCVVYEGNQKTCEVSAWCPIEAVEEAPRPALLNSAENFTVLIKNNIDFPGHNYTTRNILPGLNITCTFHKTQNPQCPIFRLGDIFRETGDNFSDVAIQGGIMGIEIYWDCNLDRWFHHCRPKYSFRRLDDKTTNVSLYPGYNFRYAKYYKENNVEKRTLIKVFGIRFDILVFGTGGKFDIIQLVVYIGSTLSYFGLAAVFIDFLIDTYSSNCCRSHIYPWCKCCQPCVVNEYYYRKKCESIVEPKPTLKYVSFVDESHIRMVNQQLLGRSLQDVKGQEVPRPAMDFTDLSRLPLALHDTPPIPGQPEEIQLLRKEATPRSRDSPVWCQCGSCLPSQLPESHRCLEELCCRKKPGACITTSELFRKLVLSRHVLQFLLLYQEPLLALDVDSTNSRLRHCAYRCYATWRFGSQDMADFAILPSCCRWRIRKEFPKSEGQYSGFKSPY
Briefly: Inhibition of human P2X7 receptor by ethidium bromide release assay.

The target in data set [2] is T2, P2X purinoceptor 7 (Rattus norvegicus, UniProt Q64663).
T2 sequence (Q64663 whole entry): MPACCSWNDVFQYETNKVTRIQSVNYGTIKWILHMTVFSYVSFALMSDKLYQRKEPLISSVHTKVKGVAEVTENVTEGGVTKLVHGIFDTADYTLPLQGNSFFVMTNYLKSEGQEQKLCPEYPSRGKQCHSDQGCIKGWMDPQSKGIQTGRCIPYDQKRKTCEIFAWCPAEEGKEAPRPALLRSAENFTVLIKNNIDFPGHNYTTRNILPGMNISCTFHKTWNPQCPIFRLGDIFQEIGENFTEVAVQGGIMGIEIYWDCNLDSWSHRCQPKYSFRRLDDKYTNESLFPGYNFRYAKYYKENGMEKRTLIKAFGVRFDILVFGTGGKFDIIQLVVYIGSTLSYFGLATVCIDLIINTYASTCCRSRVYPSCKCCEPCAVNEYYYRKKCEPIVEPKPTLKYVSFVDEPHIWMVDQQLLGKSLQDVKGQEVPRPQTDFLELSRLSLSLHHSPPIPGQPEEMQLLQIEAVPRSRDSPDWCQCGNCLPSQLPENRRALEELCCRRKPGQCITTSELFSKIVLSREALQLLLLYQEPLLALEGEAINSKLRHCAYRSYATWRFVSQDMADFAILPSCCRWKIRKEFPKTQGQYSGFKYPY
Briefly: Inhibition of rat P2X7 receptor by ethidium bromide release assay.

The test system of data set [3] is Liver microsomes. Briefly: Intrinsic clearance in rat liver microsome. The format is ADME. A general note: Liver microsomes are a subcellular fraction often used to study metabolism.
Data set [4] in a line: Lipophilicity, log D of the compound at pH 7.4. Type of data set: physicochemical. Particulars: buffer.
In data set [5] the test system is Rattus norvegicus. Briefly: Antiinflammatory activity in rat assessed as inhibition of FCA-induced hypersensitivity at 20 and 50 mg/kg, po bid for 5 days. The format is functional, organism-based. The arrangement: dose 50 mg/kg.
In data set [6] the test system is Liver microsomes. As to the kind of experiment: Intrinsic clearance in human liver microsome. Type of data set: ADME.
Data set [7] in a line: Blood clearance in rat at 1 mg/kg, iv for 1 hrs. Type of data set: ADME, organism-based. The arrangement: dose 1 mg/kg, route intravenous.
Data set [8] is described as follows: Half life in rat at 1 mg/kg, iv for 1 hrs. The format is ADME, organism-based. The arrangement: dose 1 mg/kg, route intravenous. The settings on record: in vivo.
Data set [9] is described as follows: Volume of distribution at steady state in rat at 1 mg/kg, iv for 1 hrs. Type of data set: ADME, organism-based. The arrangement: dose 1 mg/kg, route intravenous. The settings on record: in vivo, read-out: Vdss.
A short description of data set [10]: Tmax in rat at 3 mg/kg, po for 1 hrs. The format is ADME, organism-based. The arrangement: dose 3 mg/kg, route oral. The settings on record: in vivo.
Data set [11] can be described thus: Cmax in rat at 3 mg/kg, po for 1 hrs. The arrangement: dose 3 mg/kg, route oral. Particulars: in vivo. Type of data set: ADME, organism-based.
Data set [12] has as its system Rattus norvegicus. Briefly: AUC in rat at 3 mg/kg, po for 1 hrs. The format is ADME, organism-based, Plasma. The arrangement: dose 3 mg/kg, route oral. The settings on record: in vivo.
Data set [13] in a line: Oral bioavailability in rat at 3 mg/kg for 1 hrs. Particulars: in vivo. The format is ADME, organism-based.
The test system of another data set is Brain. Briefly: Drug level in rat brain at 50 mg/kg, po. The format is ADME, organism-based. The arrangement: dose 50 mg/kg, route oral. The settings on record: in vivo, read-out: Drug uptake.
The test system of a further data set is Plasma. Briefly: Drug level in rat plasma at 50 mg/kg, po. The arrangement: dose 50 mg/kg, route oral. The format is ADME, organism-based. The settings on record: in vivo, read-out: Drug uptake.
The subject of data set [14] is Rattus norvegicus. As to the kind of experiment: Antiallodynic activity in rat chronic constriction injury model assessed as nerve injury-induced allodynia at 20 mg/kg, po bid measured post dose on day 1 of 8 days treatment. Type of data set: functional, organism-based. The arrangement: dose 20 mg/kg.
Data set [15] is described as follows: Drug level in brain of rat chronic constriction injury model at 20 mg/kg, po bid for 8 days measured on last day. The arrangement: dose 20 mg/kg, route oral. Type of data set: ADME, organism-based.
Data set [16] is described as follows: Drug level in plasma of rat chronic constriction injury model at 20 mg/kg, po bid for 8 days measured on last day. Type of data set: ADME, organism-based. The arrangement: dose 20 mg/kg, route oral.
The nature of data set [17]: Solubility of the compound. Type of data set: physicochemical.
Data set [18] has as its system Rattus norvegicus. Briefly: Antiallodynic activity in rat chronic constriction injury model assessed as nerve injury-induced allodynia at 20 mg/kg, po bid measured post dose on day 1 of 8 days treatment.

pIC50: −log10 of the molar value. Converted amounts (≈) assume the structure as drawn. The source made the active and inactive calls. The rule behind the calls is not given here.

One may read the pIC50 as −log10 of the IC50, conventionally taken in molar units. For the molecule `CC(C)N1C(=O)CC[C@H]1C(=O)NCc1ccc(F)cc1Cl`, the pIC50 is 7.00 against P2X purinoceptor 7 [1] and 5.80 at P2X purinoceptor 7 [2].

As to `CCN1C(=O)CC[C@H]1C(=O)NCc1ccccc1OC`, the pIC50 at P2X purinoceptor 7 [1] was > 6.00.

Take `O=C(NCc1ccc(F)cc1Cl)[C@@H]1CCC(=O)N1C1CCCC1`: the pIC50 against P2X purinoceptor 7 [1] was 6.30.

Broadly, the logD is lipophilicity at a set pH, counting ionised and neutral species. Low values mean lower lipophilicity, high ones higher lipophilicity. For `CN(C(=O)c1cc(Cl)c(=O)n(Cc2c(Cl)cccc2Cl)c1)c1ccccc1`, the values for the pIC50 against P2X purinoceptor 7 [1] and at P2X purinoceptor 7 [2] were 6.90 and 6.50, respectively. The CL with Liver microsomes [3] is > 50 mL/min/g. This molecule had a logD in data set [4] of 4.4.

For `CCN1C(=O)CC[C@@H]1C(=O)NCc1ccc(F)cc1Cl`, at P2X purinoceptor 7 [1], the pIC50 was 6.80.

On P2X purinoceptor 7 [1], `CCN1C(=O)CC[C@H]1C(=O)NCC12CC3CC(CC(C3)C1)C2` had a negative logarithm of the IC50 (pIC50) of 7.10.

In turn, `CN1C(=O)CC[C@H]1C(=O)NCc1ccc(F)cc1Cl` showed a pIC50 against P2X purinoceptor 7 [1] of 7.00.

As for `CCN1C(=O)CC[C@H]1C(=O)NCc1cccc(C(F)(F)F)c1`, the negative-log IC50 (pIC50) at P2X purinoceptor 7 [1] was 7.00.

With `Cc1ccc(-c2cc(C(F)(F)F)nn2-c2ccc(S(N)(=O)=O)cc2)cc1`, in the data set on Rattus norvegicus [5], the outcome was inactive.

Consider `CC(C)N1C(=O)CCC1C(=O)NCc1ccc(F)cc1Cl` (stereo not drawn), for which the pIC50 is 6.50 against P2X purinoceptor 7 [1] and < 5.00 on P2X purinoceptor 7 [2]. The logD in [4] came out at 2.6.

The molecule `CCCN1C(=O)CC[C@H]1C(=O)NCc1ccc(F)cc1Cl` had a pIC50 at P2X purinoceptor 7 [1] of 6.80.

On P2X purinoceptor 7 [1], `CCN1C(=O)CC[C@H]1C(=O)NCc1ccc(F)cc1Cl` had a pIC50 of 7.50. Moreover, the CL in the data set on Liver microsomes [3] is < 0.5 mL/min/g.

Usually clearance stands for the rate of elimination divided by the concentration. A high value points to efficient removal. As usually defined, the half-life is the time in which the quantity being followed falls by half. The low end stands for fast loss, the high end for slow loss. One may read the Tmax as the time at which the peak concentration occurs. What is called Cmax is the maximum level reached in the sampled fluid or tissue. What is called bioavailability is the share of a dose that reaches the circulation, judged against a reference dose that is usually intravenous. By solubility is commonly meant the concentration that dissolves in the medium under given conditions. Take `CN1C(=O)CC[C@H]1C(=O)NCc1cccc(C(F)(F)F)c1Cl` [GSK1482160]: the pIC50 was 8.50 against P2X purinoceptor 7 [1] and 6.50 against P2X purinoceptor 7 [2]. Besides, in the data set on Liver microsomes [6], the CL was < 0.5 mL/min/g. The log distribution coefficient (logD) in data set [4] turned out to be 1.9. This molecule came in with a clearance in data set [7] of 9 mL/min/kg. The same molecule gave a half-life in data set [8] of 1.5 h. Further, in data set [9], the Vd amounted to 1.1 L/kg. Also, in data set [10], the Tmax was 1 h. The molecule also had a Cmax in data set [11] of 2.45 µM. The molecule also showed an AUC with Rattus norvegicus [12] of 73 kg·min/L. For the same molecule, the bioavailability in data set [13] came to 65%. Also, the concentration was 26.7 µM with Brain and 12.9 µM with Plasma. Further, the result in the data set with Rattus norvegicus [14] and in the data set with Rattus norvegicus [18] was Active. Besides, the concentration at 192 h turned out to be 3.36 µM in [15] and 5.91 µM in data set [16]. The concentration in solution in data set [17] (solubility) was 970 µg/mL (≈ 2900 µM).

As to `CC(C)CN1C(=O)CC[C@H]1C(=O)NCc1ccc(F)cc1Cl`, the pIC50 against P2X purinoceptor 7 [1] was 6.40.

Take `CN(Cc1ccc(Cl)cc1Cl)C(=O)[C@@H]1CCC(=O)N1C`: the pIC50 against P2X purinoceptor 7 [1] was > 6.00.

For `CCN1C(=O)CC[C@H]1C(=O)NCc1ccc(Cl)cc1`, the pIC50 at P2X purinoceptor 7 [1] is 6.20.

In turn, `CCN1C(=O)CC[C@H]1C(=O)NCc1ccccc1C(F)(F)F` showed a pIC50 against P2X purinoceptor 7 [1] of 6.20.

For `O=C1CC[C@@H](C(=O)NCc2ccc(F)cc2Cl)N1`, the pIC50 against P2X purinoceptor 7 [1] is > 6.00.

In the case of `CCN1C(=O)CC[C@H]1C(=O)NCc1ccccc1`, on P2X purinoceptor 7 [1], the pIC50 was > 6.00.

Take `CCN1CCC[C@H]1C(=O)NCc1ccc(F)cc1Cl`: the pIC50 against P2X purinoceptor 7 [1] was > 6.00.

Consider `CCN1C(=O)CC[C@H]1C(=O)NCc1ccccc1Cl`, for which, on P2X purinoceptor 7 [1], the pIC50 is 6.20.

For the molecule `Cc1n[nH]c(C)c1CC(=O)NCc1ccc(Cl)cc1Cl`, in the data set on Liver microsomes [3], the CL was determined as 1.3 mL/min/g. In data set [4], this molecule gave a logD of 2.7.

`O=C(NCc1ccc(F)cc1Cl)[C@@H]1CCC(=O)N1c1ccccc1` showed a pIC50 on P2X purinoceptor 7 [1] of 6.10.

`CC(=O)N1CCC[C@H]1C(=O)NCc1ccc(F)cc1Cl`: the pIC50 at P2X purinoceptor 7 [1] was 7.00.

In turn, `Cc1nn(-c2ccccc2)c(C)c1CC(=O)NCc1ccc(F)cc1Cl` gave a CL in the data set with Liver microsomes [3] of 46 mL/min/g. In data set [4], this molecule came in with a logD of 3.4.

Molecule `O=C(NCc1ccc(F)cc1Cl)[C@@H]1CCC(=O)N1C1CCC1` displayed a CL with Liver microsomes [3] of 2.3 mL/min/g.

In the case of `CCN1C(=O)CC[C@H]1C(=O)NCC1CCCCC1`, the pIC50 at P2X purinoceptor 7 [1] is > 6.00.
